The source of these data is publication PMC7287882, “Dual miRNases for Triple Incision of miRNA Target: Design Concept and Catalytic Performance” (Molecules, 2020).

Assay [1] deals with miR-17. Nature of the assay: Gel-retardation assay, hybridization with miR-17. Type of assay: binding. The settings on record: 50 mM Tris-HCl pH 7.0, 200 mM KCl, 1 mM EDTA, 37 °C, 45 min, mean of 3. The text has this:
We carried out a comparative analysis of the hybridization properties of the developed DCs with the corresponding SCs, which were the products of the first stage of the DCs synthesis. As discussed above, each SC consisted of the corresponding oligonucleotide A, which was complementary to the 5′-region of the matching miRNA target, and the catalytic peptide [LRLRG]2, attached to the 5′-end of this oligonucleotide via a thiohexyl linker (linker 2). […] Indeed, the level of binding of DCs to their miRNA targets reached 96, 90, 75, 55% at equimolar concentration (1 μM), and 99, 96, 92 and 69% at 5-fold excess of DCs over miR-17, miR-18a, miR-21 and miR-155, respectively (Figure 2). […]
The reaction mixture (4 µL) containing 50 mM Tris-HCl, pH 7.0, 200 mM KCl and 1 mM EDTA, 100 cpm (Cherenkov’s counting) of [^32P]-miRNA, 1 μM unlabeled miRNA, a conjugate at a concentration ranging from 0.1 to 10 μM was incubated at 37 °C for 45 min and quenched by adding of a loading buffer (20% ficoll, 0.025% bromophenol blue, 0.025% xylene cyanol). […] Formation of the complex miRNA/conjugate was analyzed by electrophoresis in 15% native PAAG at 4 °C. The gels were analyzed using Molecular Imager FX. The extent of binding of conjugate to miRNA was determined as a ratio of radioactivity measured in the complex to the total radioactivity applied onto the gel lane.

For assay [2], the system named is miR-17. The assay is described as follows: Ribonuclease activity assay at different concentrations of KCl. The note with it: miRNA 1 µM, DC 20 µM, 37 °C, 48 h; for Cleavage: 20 mM Tris-HCl pH 7.8, 8 mM MgCl2, 1 mM DTT, 0.02 mg/mL BSA, mean ± s.e. Format: biochemical. The procedure: Potassium ions play an important role in the regulation of cell homeostasis by maintaining the membrane potential, cell volume and pH, and may also have an influence on the performance of artificial ribonucleases. […] In order to understand the effect of K^+ ions on the efficiency of miRNA cleavage by DCs, miR-17 was incubated with the matching DC in the buffer containing 50 mM Tris-HCl, pH 7.0, 1 mM DTT, 0.02 mg/mL BSA and different K^+ concentration varied from 0 to 400 mM. […] In the absence of potassium and at a concentration of more than 200 mM, the efficiency of miRNA cleavage was 2-fold reduced.
Reaction with different concentration of KCl was performed in reaction mixtures (8 µL) containing 320 cpm (Cherenkov’s counting) of [^32P]-miR-17, 1 μM unlabeled miRNA, 20 µM of miRNA-17-DC in buffers contained 20 mM Tris-HCl, pH 7.8, 8 mM MgCl2, 1 mM DTT, 0.02 mg/mL BSA, and KCl at concentration 0, 40, 100, 200 or 400 mM at 37 °C for 48 h. RNA cleavage products were collected and analyzed as described above.

Consider “CTACCTGC–linker 1–[GRLRL]2–linker 2–AAGCACTTTG [miRNA-17-DC, Dual oligonucleotide-peptide conjugate targeted to miR-17: catalytic peptide [LRLRG]2 between two 2-aminoadenine-containing oligodeoxyribonucleotides]”, for which the “level of binding of DC to miRNA target” value is reported as 99% in the assay on miR-17 [1] (5-fold excess of DC over miRNA (1 µM)) and 96% in the assay on miR-17 [1] (equimolar, DC 1 µM : miRNA 1 µM, 15% native PAAG). In addition, the Cleavage in the assay on miR-17 [2] (K+ 0 mM) was 13.2±5.0%; with miR-17 [2] (K+ 40 mM), 22.5±4.3%; in the assay with miR-17 [2] (K+ 100 mM), 26.4±2.0%; in the assay on miR-17 [2] (K+ 200 mM) it was 13.7±3.5%; in the assay on miR-17 [2] (K+ 400 mM) it was 14.1±3.8%. In the assay with miR-17 [2] (at 40–100 mM KCl), the “most potent degradation of miRNA-target” value was “approximately 25%”.
